Data on nine compounds can be found in publication PMC4674819, “Identification of Novel Inhibitors of Organic Anion Transporting Polypeptides 1B1 and 1B3 (OATP1B1 and OATP1B3) Using a Consensus Vote of Six Classification Models” (Molecular Pharmaceutics, 2015).

The IC50 is the midpoint of a concentration-inhibition curve.

Several values for one entry are separate records, joined by “and”; a condition that tells them apart may be missing. Equal values may be shown once. Where a name gives a salt, the structure may show the parent alone. Read-outs that look alike come from different tables or passages of the source. Some results are limits rather than exact numbers.

Series [1] addresses T1, OATP1B1 (Homo sapiens, UniProt Q9Y6L6).
T1 construct: host or cells: CHO (Chinese hamster ovary) cells, stably transfected
T1 sequence (Q9Y6L6 1-691): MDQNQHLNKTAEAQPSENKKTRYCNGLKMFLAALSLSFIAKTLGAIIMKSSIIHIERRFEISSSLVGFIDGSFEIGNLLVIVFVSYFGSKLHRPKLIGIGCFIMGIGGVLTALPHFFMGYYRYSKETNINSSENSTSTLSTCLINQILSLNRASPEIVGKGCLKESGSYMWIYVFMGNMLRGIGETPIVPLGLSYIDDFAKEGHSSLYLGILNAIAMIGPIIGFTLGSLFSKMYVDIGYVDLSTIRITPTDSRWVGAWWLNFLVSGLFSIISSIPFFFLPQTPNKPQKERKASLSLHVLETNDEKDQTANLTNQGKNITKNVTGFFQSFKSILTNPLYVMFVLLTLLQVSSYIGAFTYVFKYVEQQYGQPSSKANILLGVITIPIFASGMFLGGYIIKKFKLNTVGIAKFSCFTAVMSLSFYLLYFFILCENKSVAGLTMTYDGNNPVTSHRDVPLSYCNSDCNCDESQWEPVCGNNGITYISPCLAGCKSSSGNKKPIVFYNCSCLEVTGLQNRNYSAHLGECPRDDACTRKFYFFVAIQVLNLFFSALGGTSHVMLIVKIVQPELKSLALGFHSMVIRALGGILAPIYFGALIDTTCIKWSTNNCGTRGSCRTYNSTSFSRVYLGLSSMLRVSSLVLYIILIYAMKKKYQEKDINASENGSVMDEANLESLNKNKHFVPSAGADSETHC
Kind of series: Inhibition of FMTX uptake in CHO cells stably transfected with OATP1B1. In kind it is cell-based. Conditions: for IC50: CHO cells stably transfected with OATP1B1, 5 μM FMTX, 10 min, 37 °C, means ± SD of three independent experiments; for Correctness of prediction, first symbol (OATP1B1): inhibitor class from measured IC50 against the consensus prediction. As to the method: (§1) Chinese hamster ovary (CHO) cells that were stably transfected with OATP1B1 or OATP1B3 and wild-type CHO cells were provided by the University of Zurich, Switzerland, and have been extensively characterized previously.[24],[56],[57] Cells were grown in Dulbecco’s modified Eagle medium (DMEM) supplemented with 10% FCS, 50 μg/mL L-proline, 100 U/mL penicillin, and 100 μg/mL streptomycin. The culture media of the transfected CHO cells additionally contained 500 μg/mL Geneticin sulfate (G418) (Sigma-Aldrich, Munich, Germany). Media and supplements were obtained from Invitrogen (Karlsruhe, Germany). Cells were incubated at 5% CO2 and 37 °C. For uptake experiments, CHO cells were seeded in 24-well plates (BD Biosciences, Heidelberg, Germany) at a density of 25,000 cells/well. Uptake assays were generally performed on day 3 after seeding, when the cells had grown to confluence. 24 h before starting the transport experiments, cells were additionally treated with 5 mM sodium butyrate (Sigma-Aldrich, Munich, Germany) to induce gene expression. Prior to the uptake experiments, cells were rinsed twice with 2 mL of prewarmed (37 °C) uptake buffer (116.4 mM NaCl, 5.3 mM KCL, 1 mM NaH2PO4, 0.8 mM MgSO4, 5.5 mM D-glucose, and 20 mM Hepes, pH adjusted to 7.4). Uptake was initiated by adding 0.5 mL of uptake buffer containing 5 μM of the fluorescent OATP1B1/1B3 substrate FMTX[58] in the presence or absence of inhibitors. After 10 min culture at 37 °C, uptake was stopped by removing the uptake solution and washing the cells 3 times with ice-cold uptake buffer. The cells were then lysed with 0.5 mL of 0.5% Triton X-100 solution dissolved in PBS and placed on a plate shaker for 30 min. Fluorescence was measured in an Enspire Multimode plate reader (PerkinElmer, Waltham, MA) at an excitation wavelength of 485 and an emission wavelength of 528 nm.
(§2) IC50 values were determined by plotting the log inhibitor concentration against the net uptake rate and nonlinear regression of the data set using the equation [drawing 1] in which y is the net uptake rate (pmol/μg of protein/min), I is the inhibitor concentration (μM), s is the slope at the point of inversion, and a and b are the maximum and minimum values for cellular uptake (GraphPad Software, San Diego, CA, USA) . Net uptake was calculated for each inhibitor concentration as the difference in the uptake rates of the transporter-expressing and wild-type cell lines. Unless otherwise indicated, values are expressed as mean ± SD of three individual experiments. Significant differences from control values were determined using a Student’s paired t test at a significance level of p < 0.05.

Series [2] deals with T2, OATP1B3 (Homo sapiens, UniProt Q9NPD5).
T2 construct: host or cells: CHO (Chinese hamster ovary) cells, stably transfected
T2 sequence (Q9NPD5 1-702): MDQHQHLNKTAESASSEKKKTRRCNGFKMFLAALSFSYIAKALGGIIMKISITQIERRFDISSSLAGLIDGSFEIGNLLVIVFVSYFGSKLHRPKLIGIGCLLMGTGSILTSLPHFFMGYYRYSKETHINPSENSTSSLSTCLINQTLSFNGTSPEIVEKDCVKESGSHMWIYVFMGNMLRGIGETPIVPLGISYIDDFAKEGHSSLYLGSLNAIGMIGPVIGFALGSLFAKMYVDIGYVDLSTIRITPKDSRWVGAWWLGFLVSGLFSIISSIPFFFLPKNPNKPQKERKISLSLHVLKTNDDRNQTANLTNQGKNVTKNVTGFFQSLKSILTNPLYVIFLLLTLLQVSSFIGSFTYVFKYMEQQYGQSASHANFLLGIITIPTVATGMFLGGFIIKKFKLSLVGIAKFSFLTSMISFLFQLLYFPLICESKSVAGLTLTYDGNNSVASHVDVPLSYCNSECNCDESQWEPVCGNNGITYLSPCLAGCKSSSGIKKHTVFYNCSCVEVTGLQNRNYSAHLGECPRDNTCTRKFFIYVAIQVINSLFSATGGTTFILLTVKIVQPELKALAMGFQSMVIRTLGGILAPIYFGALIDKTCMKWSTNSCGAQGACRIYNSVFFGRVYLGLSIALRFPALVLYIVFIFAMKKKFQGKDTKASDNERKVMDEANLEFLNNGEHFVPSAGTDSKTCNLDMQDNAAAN
The series can be described thus: Inhibition of FMTX uptake in CHO cells stably transfected with OATP1B3. The series is classed as cell-based. Conditions: for Correctness of prediction, second symbol (OATP1B3): inhibitor class from measured IC50 against the consensus prediction. As to the method:
as §1, §2

For series [3] the following is noted: cited from earlier work.
Series [4] has as its system OATP1B1. Also on record: method as in PMID 25603031. Conditions: commercial library of 640 FDA-approved drugs; cited from earlier work.
The subject of series [5] is OATP1B3. Conditions: commercial library of 640 FDA-approved drugs; cited from earlier work.
[6] abbreviates: CHO cells stably transfected with OATP1B3, 5 μM FMTX, 10 min, 37 °C, means ± SD of three independent experiments, read-out: IC50 (μM) OATP1B3.
The mark [7] stands for this setting: remark printed after the IC50 value, read-out: OATP1B3 inhibition, remark in the IC50 cell.

Consider `CC(C)C[C@H](NC(=O)[C@H](CCc1ccccc1)NC(=O)CN1CCOCC1)C(=O)N[C@@H](Cc1ccccc1)C(=O)N[C@@H](CC(C)C)C(=O)[C@@]1(C)CO1` [Carfilzomib], for which, in series [1], half-maximal inhibition (IC50) required 0.38 ± 0.12 µM and the “Correctness of prediction, first symbol (OATP1B1)” value was “+++,+++ (strong inhibitor (IC50 values less than 1 μM))”. In addition, in series [2] (setting [6]), the IC50 worked out at 0.9 ± 0.17 µM. In addition, the “Correctness of prediction, second symbol (OATP1B3)” value in series [2] is “+++,+++ (strong inhibitor (IC50 values less than 1 μM))”.

For `CCCCc1oc2ccc(NS(C)(=O)=O)cc2c1C(=O)c1ccc(OCCCN(CCCC)CCCC)cc1` [Dronedarone hydrochlorid e], in series [1], the IC50 was found to be 0.32 ± 0.07 µM and the “Correctness of prediction, first symbol (OATP1B1)” value is reported as “+++ (strong inhibitor (IC50 values less than 1 μM))”. Further, the IC50 in series [2] (setting [6]) worked out at 1.12 ± 0.2 µM. Also, the “Correctness of prediction, second symbol (OATP1B3)” value in series [2] is “++ (moderately strong inhibitor (IC50 values between 1 and 5 μM))”. Moreover, in series [3], the “hepatotoxicity, literature reports” value was “some literature reports for hepatotoxicity”; the “hyperbilirubinemia, reports in online sources and literature” value (“hyperbilirubinemia, reports” for short) is listed as “causing hyperbilirubinemia”.

As for `Cc1cc2nc3c(=O)[nH]c(=O)nc-3n(C[C@H](O)[C@H](O)[C@H](O)COP(=O)(O)OP(=O)(O)OC[C@H]3O[C@@H](n4cnc5c(N)ncnc54)[C@H](O)[C@@H]3O)c2cc1C` [Flavin adenine dinucleotide], in series [1], inhibition was half-maximal at 6.62 ± 1.15 µM (IC50) and the “Correctness of prediction, first symbol (OATP1B1)” value is listed as “x (wrong class prediction)”. Also, the “OATP1B1 inhibition, result in words” value in series [1] (false negative of the OATP1B1 consensus model) is on record as “OATP1B1 inhibitor”. Besides, the IC50 in series [2] (setting [6]) amounted to 10 ± 0.78 µM. Moreover, the “Correctness of prediction, second symbol (OATP1B3)” value in series [2] is “+ (moderate inhibitors (IC50 values between 5 and 10 μM))”.

With `CCC(=O)O[C@@H](O[P@](=O)(CCCCc1ccccc1)CC(=O)N1C[C@H](C2CCCCC2)C[C@H]1C(=O)O)C(C)C` [Fosinopril sodium], in series [1], the IC50 came out at 6.28 ± 1.13 µM; the “Correctness of prediction, first symbol (OATP1B1)” value is “+,+ (moderate inhibitors (IC50 values between 5 and 10 μM))”. The IC50 in series [2] (setting [6]) came out at 5.19 ± 0.98 µM. The “Correctness of prediction, second symbol (OATP1B3)” value in series [2] is “+,+ (moderate inhibitors (IC50 values between 5 and 10 μM))”. Besides, the “rank among OATP1B1 inhibitors in the screen of van de Steeg et al.” value in series [4] was 20 strongest OATP1B1 and OATP1B3 inhibitors. Also, in series [3], the “hepatotoxicity, literature reports” value is on record as “some literature reports for hepatotoxicity”; the “hyperbilirubinemia, reports” value is reported as “causing hyperbilirubinemia”. The “rank among OATP1B3 inhibitors in the screen of van de Steeg et al.” value in series [5] is 20 strongest OATP1B1 and OATP1B3 inhibitors.

`COc1ccc2c(c1)C(=O)N(CCc1ccc(S(=O)(=O)NC(=O)NC3CCCCC3)cc1)C(=O)C2(C)C` [Gliquidone]: in series [1], the IC50 was 7.45 ± 1.64 µM; the “Correctness of prediction, first symbol (OATP1B1)” value was “+ (moderate inhibitors (IC50 values between 5 and 10 μM))”. Further, the IC50 in series [2] (setting [6]) was found to be 1.17 ± 0.31 µM. Further, in series [2], the “Correctness of prediction, second symbol (OATP1B3)” value was “++ (moderately strong inhibitor (IC50 values between 1 and 5 μM))”. In addition, in series [3] (diabetic patients), the “effect on liver injury, literature report” value is “improve liver injury”.

Regarding `CS(=O)(=O)CCNCc1ccc(-c2ccc3ncnc(Nc4ccc(OCc5cccc(F)c5)c(Cl)c4)c3c2)o1` [Lapatinib], in series [1], the IC50 was found to be 0.37 ± 0.19 µM and the “Correctness of prediction, first symbol (OATP1B1)” value was “+++ (strong inhibitor (IC50 values less than 1 μM))”. Further, in series [2] (setting [6]), the IC50 is > 10 µM and 33.8 µM. Besides, the “Correctness of prediction, second symbol (OATP1B3)” value in series [2] was “-+ (slight inhibitors (IC50 values above 10 μM))”. In addition, in series [2] (setting [7]), the IC50 is > 10 µM. In series [3], the “hepatotoxicity, literature reports” value is given as “some literature reports for hepatotoxicity”; the “hyperbilirubinemia, reports” value is “causing hyperbilirubinemia”.

Turning to `CN(C)c1cccc2c(S(=O)(=O)N[C@@H](Cc3ccc(OS(=O)(=O)c4cccc5c(N(C)C)cccc45)cc3)C(=O)O)cccc12` [N,O-Didansyl-L-Tyrosine], in series [1], it took 6.07 ± 0.56 µM to reach half-maximal inhibition (IC50); the “Correctness of prediction, first symbol (OATP1B1)” value is “+ (moderate inhibitors (IC50 values between 5 and 10 μM))”. Besides, the IC50 in series [2] (setting [6]) was 2.94 ± 0.75 µM. Further, the “Correctness of prediction, second symbol (OATP1B3)” value in series [2] was “++ (moderately strong inhibitor (IC50 values between 1 and 5 μM))”.

Consider `CC(=O)Nc1cccc(-n2c(=O)n(C3CC3)c(=O)c3c(Nc4ccc(I)cc4F)n(C)c(=O)c(C)c32)c1` [Trametinib], for which the IC50 in series [1] is 0.34 ± 0.09 µM; in series [2] (setting [6]), > 10 µM and 30.8 µM; in series [2] (setting [7]), > 10 µM. Besides, the “Correctness of prediction, first symbol (OATP1B1)” value in series [1] is reported as “+++ (strong inhibitor (IC50 values less than 1 μM))”. In series [2], the “Correctness of prediction, second symbol (OATP1B3)” value is listed as “-+ (slight inhibitors (IC50 values above 10 μM))”. Besides, the “hepatic serum enzymes, literature report” value in series [3] is “elevating hepatic serum enzymes”.

Take `COc1cc(C(=O)NS(=O)(=O)c2ccccc2C)ccc1Cc1cn(C)c2ccc(NC(=O)OC3CCCC3)cc12` [Zafirlukast]: in series [1], the IC50 was found to be 7.84 ± 0.49 µM; the “Correctness of prediction, first symbol (OATP1B1)” value was “+ (moderate inhibitors (IC50 values between 5 and 10 μM))”. For the same compound, the IC50 in series [2] (setting [6]) stood at 4.96 ± 0.92 µM. The “Correctness of prediction, second symbol (OATP1B3)” value in series [2] was “++ (moderately strong inhibitor (IC50 values between 1 and 5 μM))”. In series [3], the “hepatotoxicity, literature reports” value is “some literature reports for hepatotoxicity”; the “hyperbilirubinemia, reports” value is reported as “causing hyperbilirubinemia”.
